Reference: patent US11530226B2, “Azepane inhibitors of menin-MLL interaction” (Janssen Pharmaceutica NV, priority 2016, dated 2022)

Target: T1, terbium chelate-labeled menin / FITC-MBM1 peptide (Menin/MLL) (Homo sapiens, UniProt O00255, T541A)
T1 construct: Menin (a. a. l-610-6×his tag) was labeled with terbium cryptate as follows
T1 sequence (O00255 with tags, fused parts or gaps T541A): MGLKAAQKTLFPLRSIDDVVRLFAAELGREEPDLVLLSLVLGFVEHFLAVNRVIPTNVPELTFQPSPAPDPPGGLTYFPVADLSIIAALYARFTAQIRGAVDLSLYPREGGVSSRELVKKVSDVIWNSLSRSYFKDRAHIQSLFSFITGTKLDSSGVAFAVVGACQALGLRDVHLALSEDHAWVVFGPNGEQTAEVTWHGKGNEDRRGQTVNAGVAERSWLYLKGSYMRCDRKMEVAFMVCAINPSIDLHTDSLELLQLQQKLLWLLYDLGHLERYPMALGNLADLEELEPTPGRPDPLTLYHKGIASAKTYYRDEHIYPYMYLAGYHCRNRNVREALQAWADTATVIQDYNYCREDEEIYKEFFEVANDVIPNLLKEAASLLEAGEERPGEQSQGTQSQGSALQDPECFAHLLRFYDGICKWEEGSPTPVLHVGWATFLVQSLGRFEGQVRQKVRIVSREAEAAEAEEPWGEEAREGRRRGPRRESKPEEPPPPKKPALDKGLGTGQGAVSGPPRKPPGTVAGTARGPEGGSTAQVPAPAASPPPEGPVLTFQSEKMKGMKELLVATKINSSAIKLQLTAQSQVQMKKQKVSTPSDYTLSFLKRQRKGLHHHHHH
Experiment: Menin/MLL homogenous time-resolved fluorescence (HTRF) assay
Type: binding
Settings: read-out: (2) Menin HTRF assay (IC50 (nM))
Description: 2) Menin/MLL Homogenous Time-Resolved Fluorescence (HTRF) Assay
To an untreated, white 384-well microtiter plate was added 40 nL 200× test compound in DMSO and 4 μL 2× terbium chelate-labeled menin (vide infra for preparation) in assay buffer (40 mM Tris .HCl, pH 7.5, 50 mM NaCl, 1 mM DTT and 0.05% Pluronic F-127). After incubation of test compound and terbium chelate-labeled menin for 5 min at ambient temperature, 4 μL 2×FITC-MBM1 peptide (FITC-P-alanine-SARWRFPARPGT-NH2) in assay buffer was added, the microtiter plate centrifuged at 1000 rpm for 1 min and the assay mixtures incubated for 15 min at ambient temperature. The relative amount of menin ⋅FITC-MBM1 complex present in an assay mixture is determined by measuring the homogenous time-resolved fluorescence (HTRF) of the terbium/FITC donor/acceptor fluorphore pair using a BMG Pherastar plate reader (ex. 337 nm/terbium cm. 490 nm/FITC cm. 520 nm) at ambient temperature. The degree of fluorescence resonance energy transfer (the HTRF value) is expressed as the ratio of the fluorescence emission intensities of the FITC and terbium fluorophores (P^m 520 nm//F^em 490 nm). The final concentrations of reagents in the binding assay are 100 pM terbium chelate-labeled menin, 75 nM FITC-MBM1 peptide and 0.5%) DMSO in assay buffer. Dose-response titrations of test compounds are conducted using an 11 point, three-fold serial dilution scheme, starting typically at 25 μM.
Compound potencies were determined by first calculating % inhibition at each compound concentration according to equation 1: % inhibition=((HC−LC)−(HTRF^compound−LC))/(HC−LC))*100 (Eqn 1)
Where LC and HC are the HTRF values of the assay in the presence or absence of a saturating concentration of a compound that competes with FITC-MBM1 for binding to menin, and HTRF^compound is the measured HTRF value in the presence of the test compound. HC and LC HTRF values represent an average of at least 16 replicates per plate.
Where Bottom and Top are the lower and upper asymptotes of the dose-response curve, respectively, IC50 is the concentration of compound that yields 50% inhibition of signal and h is the Hill coefficient.
Preparation of Terbium cryptate labeling of Menin: Menin (a. a. l-610-6×his tag) was labeled with terbium cryptate as follows. 2 mg of Menin was buffer exchanged into 1× phosphate buffered saline. 16 uM Menin was incubated with 4-fold molar excess NHS-terbium cryptate (Cisbio Bioassays, Bedford, Mass.) for 2 hours at room temperature. The labeled protein was purified away from free label by running the reaction over a Superdex 200 Increase 10/300 GL column at 0.75 ml/min. Peak fractions were collected, aliquoted and frozen at −80° C.

| Structure (SMILES) | IC50 |
| --- | --- |
| CN(C)CCCCN(Cc1cnn(C)c1)C1CCCN(c2ncnc3sc(CC(F)(F)F)cc23)CC1 (centres unmarked) [Compound 61] | 181 nM |
| Cn1cc(CN(Cc2ccccc2)[C@@H]2CCCN(c3ncnc4sc(CC(F)(F)F)cc34)CC2)cn1 (single isomer, unassigned) [Compound 60A] | 493 nM |
| CC(C)[C@H](NC1CCCN(c2ncnc3sc(CC(F)(F)F)cc23)CC1)C1CNC1 (single isomer, unassigned) [Compound 33] | 27 nM |
| Cn1cc(CNC2CCCN(c3ncnc4sc(CC(F)(F)F)cc34)CC2)cn1 (racemic) [Compound 11] | 69 nM |
| CC(C)N[C@@H]1CCCN(c2ncnc3sc(CC(F)(F)F)cc23)CC1 (single isomer, unassigned) [Compound 13A] | 5270 nM |
| C[C@@H]1CCN(c2ncnc3sc(CC(F)(F)F)cc23)CC[C@@H]1NCc1ccccc1 (single isomer, unassigned) [Compound 68B] | 522 nM |
| Cn1ncc2c1CCC[C@@H]2N[C@H]1CCCN(c2ncnc3sc(CC(F)(F)F)cc23)CC1 [Compound 65D] | 8690 nM |
| Cn1cc2c(n1)CCC[C@@H]2N[C@H]1CCCN(c2ncnc3sc(CC(F)(F)F)cc23)CC1 (single isomer, unassigned) [Compound 66D] | 880 nM |
| CN(C)CCCN(Cc1cnn(C)c1)C1CCCN(c2ncnc3sc(CC(F)(F)F)cc23)CC1 (centres unmarked) [Compound 63] | 369 nM |
| FC(F)(F)Cc1cc2c(N3CCC[C@H](N(Cc4ccccc4)C4COC4)CC3)ncnc2s1 (single isomer, unassigned) [Compound 59B] | 1150 nM |
| CC(C)NC1CCCN(c2ncnc3sc(CC(F)(F)F)cc23)CC1 (single isomer, unassigned) [Compound 13B] | 2460 nM |
| CC(C)CN(Cc1cnn(C)c1)[C@@H]1CCCN(c2ncnc3sc(CC(F)(F)F)cc23)CC1 (single isomer, unassigned) [Compound 58A] | 1550 nM |
| FC(F)(F)Cc1cc2c(N3CCC[C@@H](NCc4cn[nH]c4)CC3)ncnc2s1 (single isomer, unassigned) [Compound 26] | 27 nM |
| C[C@H](N[C@@H]1CCCN(c2ncnc3sc(CC(F)(F)F)cc23)CC1)c1cnn(C)c1 (single isomer, unassigned) [Compound 54B] | 13200 nM |
| Cn1cc2c(n1)CCC[C@H]2N[C@@H]1CCCN(c2ncnc3sc(CC(F)(F)F)cc23)CC1 (single isomer, unassigned) [Compound 66A] | 7440 nM |
| Cn1ncc2c1CCC[C@H]2N[C@@H]1CCCN(c2ncnc3sc(CC(F)(F)F)cc23)CC1 (single isomer, unassigned) [Compound 65A] | 3500 nM |
| Cn1cc(CNC2CCCN(c3ncnc4sc(CC(F)(F)F)cc34)CC2)cn1 (single isomer, unassigned) [Compound 11B] | 1470 nM |
| Cc1ccc(CN[C@@H]2CCCN(c3ncnc4sc(CC(F)(F)F)cc34)CC2)c(C)c1 (single isomer, unassigned) [Compound 9A] | 548 nM |

| Structure (SMILES) | IC50 |
| --- | --- |
| C[C@@H](N[C@H]1CCCN(c2ncnc3sc(CC(F)(F)F)cc23)CC1)c1cnn(C)c1 (single isomer, unassigned) [Compound 54D] | 6760 nM |
| Cn1ncc2c1CCC[C@H]2N[C@H]1CCCN(c2ncnc3sc(CC(F)(F)F)cc23)CC1 [Compound 65C] | 686 nM |
| CC(C)[C@H](N[C@H]1CCCN(c2ncnc3sc(CC(F)(F)F)cc23)CC1)C1CNC1 (single isomer, unassigned) [Compound 32] | 758 nM |
| C[C@@H](N[C@@H]1CCCN(c2ncnc3sc(CC(F)(F)F)cc23)CC1)c1cnn(C)c1 (single isomer, unassigned) [Compound 54A] | 11900 nM |
| CC(C)[C@@H](CO)N[C@H]1CCCN(c2ncnc3sc(CC(F)(F)F)cc23)CC1 [Compound 14B] | 767 nM |
| CNC(=O)[C@@H](NC1CCCN(c2ncnc3sc(CC(F)(F)F)cc23)CC1)C(C)C (some centres unmarked) [Compound 52] | 20800 nM |
| C[C@H](N[C@H]1CCCN(c2ncnc3sc(CC(F)(F)F)cc23)CC1)c1cnn(C)c1 (single isomer, unassigned) [Compound 54C] | 1490 nM |
| CC(C)CN(Cc1cnn(C)c1)[C@H]1CCCN(c2ncnc3sc(CC(F)(F)F)cc23)CC1 (single isomer, unassigned) [Compound 58B] | 888 nM |
| Cn1cc2c(n1)CCC[C@H]2N[C@H]1CCCN(c2ncnc3sc(CC(F)(F)F)cc23)CC1 (single isomer, unassigned) [Compound 66C] | 5380 nM |
| CC(C)[C@@H](N[C@@H]1CCCN(c2ncnc3sc(CC(F)(F)F)cc23)CC1)C1CNC1 (single isomer, unassigned) [Compound 35] | 1010 nM |
| CC(C)[C@@H](CO)N[C@@H]1CCCN(c2ncnc3sc(CC(F)(F)F)cc23)CC1 [Compound 14A] | 4470 nM |
| FC(F)(F)Cc1cc2c(N3CCCC(NCC4CCOCC4)CC3)ncnc2s1 (centres unmarked) [Compound 55] | 227 nM |
| O=C(NC1CCCN(c2ncnc3sc(CC(F)(F)F)cc23)CC1)[C@H]1CC2(CC2)CN1 (some centres unmarked) [Compound 10A] | 1530 nM |
| CNCCN(Cc1cnn(C)c1)C1CCCN(c2ncnc3sc(CC(F)(F)F)cc23)CC1 (centres unmarked) [Compound 39] | 852 nM |
| FC(F)(F)Cc1cc2c(N3CCCC(NCc4ccncn4)CC3)ncnc2s1 (centres unmarked) [Compound 69] | 598 nM |
| CN(C)CCCNC1CCCN(c2ncnc3sc(CC(F)(F)F)cc23)CC1 (centres unmarked) [Compound 56] | 724 nM |
| FC(F)(F)Cc1cc2c(N3CCC[C@@H](N(Cc4ccccc4)C4COC4)CC3)ncnc2s1 (single isomer, unassigned) [Compound 59A] | 709 nM |

Tested on: MV-4-1 1 cells (MLL-AF4)
Experiment: Proliferation assay (spheroid-like growth, 8 d, live-cell imaging), MV-4-11
Type: cell-based, human
Settings: Homo sapiens, MV4-11, 192 h, MV-4-11 cells, absolute IC50 from AUC of confluence, read-out: (3) Spheroid assay MV-4-11 (IC50 (μM))
Description: The anti-proliferative effect of menin/MLL protein/protein interaction inhibitor test compounds was assessed in human leukemia cell lines. The cell lines MV-4-1 1 and MOLM14 harbor MEL translocations and express the MEL fusion proteins MLL-AF4 and MLL-AF9, respectively, as well as the wildtype protein from the second allele. […] K562 was used as a control cell line containing two MLL wildtype alleles in order to exclude compounds that display general cytotoxic effects.
MV-4-1 1 and MOLM14 were cultured in RPMI-1640 (Sigma Aldrich) supplemented with 10% fetal bovine serum (HyClone), 2 mM L-glutamine (Sigma Aldrich) and 50 μg/ml gentamycin (Gibco). K562 were propagated in RPMI-1640 (Sigma Aldrich) supplemented with 20% fetal bovine serum (HyClone), 2 mM L-glutamine (Sigma Aldrich) and 50 μg/ml gentamycin (Gibco).
In order to assess the anti-proliferative effects, 1,500 MV-4-1 1, 300 MOLM14 or 750 K562 cells were seeded in 200 μl media per well in 96-well round bottom, ultra-low attachment plates (Costar, catalogue number 7007). Cell seeding numbers were chosen based on growth curves to ensure linear growth throughout the experiment. Test compounds were added at different concentrations and the DMSO content was normalized to 0.3%>. Cells were incubated for 8d at 37° C. and 5% C02. Spheroid like growth was monitored in real-time by live-cell imaging (IncuCyteZOOM, Essenbio, 4× objective) acquiring one image every four hours for 8d. Confluence (%) as a measure of spheroid size was determined using an integrated analysis tool.
In order to determine the cumulative effect of the test compounds over time, the area under the curve (AUC) in a plot of confluence against time was calculated. Confluence at the beginning of the experiment (t=0) was used as baseline for the AUC calculation.
Absolute IC50 values were calculated according to the following procedure: % Control=(AUC sample/AUC control)*100 AUC control=mean AUC of control values(cells without compound/DMSO as vehicle control)
A non-linear curve fit was applied using the least squares (ordinary) fit method to the plot of % control versus compound concentration. Based on this, the absolute IC50 value (half maximal inhibitory concentration of the test compound causing an anti-proliferative effect of 50% relative to the vehicle control) was calculated.

| Structure (SMILES) | IC50 |
| --- | --- |
| Cn1cc(CN(Cc2ccccc2)[C@@H]2CCCN(c3ncnc4sc(CC(F)(F)F)cc34)CC2)cn1 (single isomer, unassigned) [Compound 60A] | 5.5 µM |
| CC(C)[C@H](NC1CCCN(c2ncnc3sc(CC(F)(F)F)cc23)CC1)C1CNC1 (single isomer, unassigned) [Compound 33] | 2 µM |
| Cn1cc(CNC2CCCN(c3ncnc4sc(CC(F)(F)F)cc34)CC2)cn1 (racemic) [Compound 11] | 2 µM |
